# Data from patent US10499643B2, “Synergistic herbicidal composition and the method of controlling the growth of undesired plants” (JIANGSU ROTAM CHEMISTRY CO., LTD, priority 2016, dated 2019).
# Tested on: gramineous weeds, broadleaf weeds, sedge weeds
# Experiment: Post-emergence test: stem and leaf treatment of potted weeds, fresh weight inhibition rate, synergy by Colby's equation
# Assay type: in vivo
# Procedure: The assessment on the synergistic effect of mixing two or more herbicidal active ingredients is determined based on the Colby's equation as described in “Calculation Synergistic and Antagonistic Response of Herbicide Combinations (Weeds 15/1 (1967), S. R. Colby)”.
# Use stem and leaf treatment for potted grown plant (NY/T 1155.4-2006): fill a plastic pot (6 cm height, 9 cm diameter) with a quantity of soil and sow 15 to 20 seeds of monocotyledonous weeds and dicotyledonous weeds in the plastic pot, cover it with 0.5 to 1 cm thick of fine soil and then put it in greenhouse for cultivation. When weeds grow to the 2 to 4 leave stage, conduct the stem and leaf spray treatment with 1 mL herbicidal solution on each pot and repeat four times for each treatment and leave some pots untreated as control group. Keep the treated pots in a greenhouse for cultivation and observe the growing status of target weeds periodically. Conduct the visual test on the target weeds regarding the damage symptoms and growth inhibition effect after 21 days. Weigh up the fresh weight above the ground or plant fresh weight and evaluate the toxicity of the herbicidal formulation on target weeds based on the fresh weight inhibition rate of the target.
# Prepare the following three formulations according to specific weight percentages: 1. Pyroxasulfone; 2. […] After that, dilute above formulations with water to obtain diluted formulations.
# Conduct visual assessment the damage symptom and growth inhibition status of target weeds after 21 days. Weigh up the fresh weight above the ground and calculate the inhibition rate of fresh weight (%).
# The assessment on the synergistic effect of mixing two or more herbicidal active ingredients is determined based on the Colby's equation as described in “Calculation Synergistic and Antagonistic Response of Herbicide Combinations (Weeds 15/1(1967), S. R. Colby)”.
# Wherein, X represents Fresh Weight Inhibition Rate of Pyroxasulfone when applied alone at certain application rate against target weeds;
Structure (SMILES),"inhibition at 1 g/ha (post-emergence, Pyroxasulfone 1 g ai/ha alone, read-out: Herbicidal Activity % Experimental Data)","inhibition at 5 g/ha (post-emergence, Pyroxasulfone 5 g ai/ha alone, read-out: Herbicidal Activity % Experimental Data)","inhibition at 10 g/ha (post-emergence, Pyroxasulfone 10 g ai/ha alone, read-out: Herbicidal Activity % Experimental Data)","inhibition at 25 g/ha (post-emergence, Pyroxasulfone 25 g ai/ha alone, read-out: Herbicidal Activity % Experimental Data)","inhibition at 50 g/ha (post-emergence, Pyroxasulfone 50 g ai/ha alone, read-out: Herbicidal Activity % Experimental Data)",Herbicidal Activity % Experimental Data (Thifensulfuron methyl 1 g ai/ha alone),Herbicidal Activity % Experimental Data (Thifensulfuron methyl 5 g ai/ha alone),Herbicidal Activity % Experimental Data (Thifensulfuron methyl 10 g ai/ha alone),Herbicidal Activity % Experimental Data (Thifensulfuron methyl 25 g ai/ha alone),Herbicidal Activity % Experimental Data (Thifensulfuron methyl 50 g ai/ha alone)
"Cn1nc(C(F)(F)F)c(CS(=O)(=O)C2=NOC(C)(C)C2)c1OC(F)F [Pyroxasulfone, 3-[5-(difluoromethoxy)-1-methyl-3-(trifluoromethyl)pyrazol-4-ylmethylsulfonyl]-4,5-dihydro-5,5-dimethyl-1,2-oxazole]",11%,22%,40%,49%,63%,–,–,–,–,–
COC(=O)c1sccc1S(=O)(=O)NC(=O)Nc1nc(C)nc(OC)n1 [Thifensulfuron methyl],–,–,–,–,–,0%,15.5%,31.2%,55.1%,60.3%
